According to patent US10835537B2, “Combination therapies for treatment of cancer” (Sumitomo Dainippon Pharma Oncology, Inc., priority 2015, dated 2020):

Experiments:
MV 4-11 cells = test: Cell viability, Cell titer-glo assay; assay type: cell-based; details: for EC50: Homo sapiens, MV4-11, MV 4-11 cells, wash
Description: MV 4-11 cells were dosed first with alvocidib (80 nM) or DMSO for 24 hours followed by a wash step. Following the wash step, the cells were dosed with azacitidine (30 μM to 0.001 μM) for an additional 72 hours, Measurement of cell viability was taken at 96 hours from the initial dose (72 hours after the wash step) and normalized to data collected for cells dosed with alvocidib only. Cell viability was then assessed in a Cell titer-glo assay, according to manufacturer protocol. Cell viability was then plotted against concentration on a logarithmic scale (FIG. 2).
FIGS. 5A and 5B present data from combination treatment of Alvocidib and decitabine in MV4-11 cells. MV4-11 cells were first treated for 96 hours with alvocidib+decitabine according to the general procedures of Example 2 at the concentrations indicated in FIG. 5A. […] Here, a change of nearly 10-fold in the IC50 (μM) of decitabine with the addition of alvocidib (100 nM) was observed when alvocidib was administered prior to decitabine.

MCL-1 = MCL-1 expression by western blotting in MV4-11 cells; assay type: cell-based
Description: An AML cell line, MV-4-11, expresses MCL-1. MCL-1 is a key anti-apoptotic protein in MV-4-11 cells. Alvocidib, a CDK9 inhibitor, lowers the expression of MCL-1, which is already well documented in the literature. Alvocidib down-regulates MCL-1 in a dose dependent manner (FIG. 1A). The dose dependence is observed by monitoring the relative expression of MCL-1 compared to β-actin when cells are dosed with alvocidib at concentrations of 0-8 μM. MV4-11 cells were treated with Alvocidib for 16 hrs in vitro, Following treatment, cells were harvested and prepared using standard western blotting technique for immuno-detection of MCL-1 and β-actin expression.
In addition, alvocidib also down-regulates MCL-1 in a time-dependent manner (FIG. 1B). The time dependence is observed by monitoring the relative expression of MCL-1 compared top-actin over time. The relative expression of MCL-1 was measured at 0.5-48 hour time points after dosing with 80 nM of alvocidib.
MV4-11 cells were treated with 80 nM Alvocidib in vitro for the times indicated. Following treatment, cells were harvested and prepared using standard western blotting technique for immunodetection of MCL-1 and β-actin expression.

## Nc1ncn([C@H]2C[C@H](O)[C@@H](CO)O2)c(=O)n1 [decitabine]
MV 4-11 cells; MV4-11 cells, alvocidib 100 nM 24 hours pre-treatment, then decitabine 72 hours
  Change in IC50 of decitabine with the addition of alvocidib: ~10 fold

## Nc1ncn([C@@H]2O[C@H](CO)[C@@H](O)[C@H]2O)c(=O)n1 [azacitidine]
MV 4-11 cells; DMSO 24 hours, then azacitidine only 72 hours
  EC50: 1.78 µM
MV 4-11 cells; alvocidib 80 nM 24 hours, then azacitidine 72 hours, normalized to alvocidib only
  EC50: 0.641 µM

## CN1CC[C@H](c2c(O)cc(O)c3c(=O)cc(-c4ccccc4Cl)oc23)[C@H](O)C1 [Alvocidib]
MCL-1; 80 nM, 1 hour post-treatment
  MCL-1 expression compared to β-actin: reduced MCL-1 expression
MCL-1; 80 nM, 16 hrs
  MCL-1 expression compared to β-actin: nearly completely blocked
MCL-1; 80 nM, up to 48 hours following treatment
  MCL-1 expression compared to β-actin: inhibition of expression was maintained
MCL-1; 0.1 μM, 16 hrs
  MCL-1 expression compared to β-actin: reduced MCL-1 expression
MCL-1; 1 μM, 16 hrs
  MCL-1 expression compared to β-actin: completely blocked expression
